How the values were obtained:
[1] = target: T1, hSERT D328A (S2 site mutant) (Homo sapiens, UniProt P31645, D328A); assay: APP+ transport in HeLa cells expressing hSERT mutant D328A; assay type: cell-based; conditions: 2 μM APP+ 5 min, intact HeLa cells, read-out: SAG IC50 for transport
T1 construct: expressed in transfected cells; host or cells: HeLa (ATCC CCL-2), transient, pcDNA3.1
Description: (§1) The mutants used for this study were constructed in the WT background carried by the expression plasmids for hSERT, hDAT, or hNET under the control of CMV promotor in pcDNA3.1 vector, respectively. All mutants were generated using the Mut Express II Fast Mutagenesis Kit (Vazyme) and confirmed by full-length DNA sequencing.
(§2) HeLa cells were cultured in Dulbecco’s Modified Eagle’s Medium supplemented with 10% fetal bovine serum, 100 units/ml penicillin, and 100 μg/ml streptomycin at 37°C in a humidified 5% CO2 incubator. Cells were plated in a 6-well culture plate and grown overnight. Cells at ∼70% confluence were transfected with hSERT, hDAT, or hNET cDNA in pcDNA3.1 by lipofectamine 2000. […] After grown for additional 12–16 h, the cells were assayed for APP^+ or ASP^+ fluorescence image acquisition.
(§3) The cells expressing WT or mutants of hSERT, hDAT, or hNET were wet mounted on polylysine coated glass slides in 12-well plates and applied for the indicated treatments. […] The extent of APP^+ accumulated in the cells was determined by confocal imaging analysis. ASP^+ binding to SERT in the cell membrane was measured with digitonin-permeabilized cells ([Li M. et al., 2022a]). […] After removing excess ASP^+ by rapid washing three times, ASP^+ binding was determined by confocal imaging analysis.
(§4) Images were analyzed using Zen Blue software. […]

[2] = target: T2, hSERT G498T (S2 site mutant) (Homo sapiens, UniProt P31645, G498T); assay: APP+ transport in HeLa cells expressing hSERT mutant G498T; assay type: cell-based; conditions: 2 μM APP+ 5 min, intact HeLa cells, read-out: SAG IC50 for transport
T2 construct: expressed in transfected cells; host or cells: HeLa (ATCC CCL-2), transient, pcDNA3.1
Description: as §1, §2, §3, §4

[3] = target: T3, hSERT T497A (S2 site mutant) (Homo sapiens, UniProt P31645, T497A); assay: ASP+ binding in digitonin-permeabilized HeLa cells expressing hSERT T497A; conditions: 10 μM ASP+, read-out: SAG IC50 for binding
T3 construct: expressed in transfected cells; host or cells: HeLa (ATCC CCL-2), transient, pcDNA3.1
Description: as §1, §2, §3, §4

[4] = target: T4, hSERT S559A (S2 site mutant) (Homo sapiens, UniProt P31645, S559A); assay: ASP+ binding in digitonin-permeabilized HeLa cells expressing hSERT S559A; conditions: 10 μM ASP+, read-out: SAG IC50 for binding
T4 construct: expressed in transfected cells; host or cells: HeLa (ATCC CCL-2), transient, pcDNA3.1
Description: as §1, §2, §3, §4

[5] = target: T5, hDAT Q317A (S2 site mutant) (Homo sapiens, UniProt Q01959, Q317A); assay: APP+ transport in HeLa cells expressing hDAT mutant Q317A; assay type: cell-based; conditions: intact HeLa cells, read-out: SAG IC50
T5 construct: expressed in transfected cells; host or cells: HeLa
Description: as §1, §2, §3, §4

[6] = target: T6, hDAT H477Q (S2 site mutant) (Homo sapiens, UniProt Q01959, H477Q); assay: APP+ transport in HeLa cells expressing hDAT mutant H477Q; assay type: cell-based; conditions: intact HeLa cells, read-out: SAG IC50
T6 construct: expressed in transfected cells; host or cells: HeLa
Description: as §1, §2, §3, §4

WT-hNET = target: T7, WT-hNET (Homo sapiens, UniProt P23975); assay: APP+ transport (uptake) in HeLa cells expressing WT-hNET; assay type: cell-based; conditions: WT hNET; APP+ transport, intact HeLa cells; read-out: SAG IC50
T7 construct: expressed in transfected cells; host or cells: HeLa
Description: HeLa cells were cultured in Dulbecco’s Modified Eagle’s Medium supplemented with 10% fetal bovine serum, 100 units/ml penicillin, and 100 μg/ml streptomycin at 37°C in a humidified 5% CO2 incubator. Cells were plated in a 6-well culture plate and grown overnight. Cells at ∼70% confluence were transfected with hSERT, hDAT, or hNET cDNA in pcDNA3.1 by lipofectamine 2000. Transfected cells were incubated for 24 h at 37°C with 5% CO2 and then transferred into a 12-well plate placed with polylysine coated slides. After grown for additional 12–16 h, the cells were assayed for APP^+ or ASP^+ fluorescence image acquisition.
as §3
Images were analyzed using Zen Blue software.
Nonlinear regression fits of experimental and calculated data were performed with Origin (Origin Lab). […]

[7] = target: T8, hNET W559A (S2 site mutant) (Homo sapiens, UniProt P23975, W559A); assay: APP+ transport in HeLa cells expressing hNET mutant W559A; assay type: cell-based; conditions: intact HeLa cells, read-out: SAG IC50
T8 construct: expressed in transfected cells; host or cells: HeLa
Description: as §1, §2, §3, §4

[8] = target: T9, hNET L563A (S2 site mutant) (Homo sapiens, UniProt P23975, L563A); assay: APP+ transport in HeLa cells expressing hNET mutant L563A; assay type: cell-based; conditions: intact HeLa cells, read-out: SAG IC50
T9 construct: expressed in transfected cells; host or cells: HeLa
Description: as §1, §2, §3, §4

T7 sequence (P23975 whole entry): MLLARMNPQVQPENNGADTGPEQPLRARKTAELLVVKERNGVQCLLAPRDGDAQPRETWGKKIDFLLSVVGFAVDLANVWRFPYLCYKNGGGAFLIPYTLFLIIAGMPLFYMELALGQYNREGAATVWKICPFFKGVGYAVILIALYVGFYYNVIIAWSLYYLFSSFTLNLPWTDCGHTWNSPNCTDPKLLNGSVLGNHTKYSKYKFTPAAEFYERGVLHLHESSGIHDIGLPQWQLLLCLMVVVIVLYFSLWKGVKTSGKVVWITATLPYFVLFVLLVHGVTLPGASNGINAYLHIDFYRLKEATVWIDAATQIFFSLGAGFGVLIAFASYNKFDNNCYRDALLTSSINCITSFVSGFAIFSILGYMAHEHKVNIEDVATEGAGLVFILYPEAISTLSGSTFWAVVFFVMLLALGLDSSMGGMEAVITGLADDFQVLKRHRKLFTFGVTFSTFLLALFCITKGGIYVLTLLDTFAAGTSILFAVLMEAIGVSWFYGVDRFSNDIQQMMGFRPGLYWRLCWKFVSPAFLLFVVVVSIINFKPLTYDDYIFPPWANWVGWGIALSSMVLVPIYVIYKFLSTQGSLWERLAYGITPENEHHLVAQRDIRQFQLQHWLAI
T8 sequence (P23975 whole entry W559A): as the sequence (P23975 whole entry) above, with W559A counted along it
T9 sequence (P23975 whole entry L563A): as the sequence (P23975 whole entry) above, with L563A counted along it
T5 sequence (Q01959 whole entry Q317A): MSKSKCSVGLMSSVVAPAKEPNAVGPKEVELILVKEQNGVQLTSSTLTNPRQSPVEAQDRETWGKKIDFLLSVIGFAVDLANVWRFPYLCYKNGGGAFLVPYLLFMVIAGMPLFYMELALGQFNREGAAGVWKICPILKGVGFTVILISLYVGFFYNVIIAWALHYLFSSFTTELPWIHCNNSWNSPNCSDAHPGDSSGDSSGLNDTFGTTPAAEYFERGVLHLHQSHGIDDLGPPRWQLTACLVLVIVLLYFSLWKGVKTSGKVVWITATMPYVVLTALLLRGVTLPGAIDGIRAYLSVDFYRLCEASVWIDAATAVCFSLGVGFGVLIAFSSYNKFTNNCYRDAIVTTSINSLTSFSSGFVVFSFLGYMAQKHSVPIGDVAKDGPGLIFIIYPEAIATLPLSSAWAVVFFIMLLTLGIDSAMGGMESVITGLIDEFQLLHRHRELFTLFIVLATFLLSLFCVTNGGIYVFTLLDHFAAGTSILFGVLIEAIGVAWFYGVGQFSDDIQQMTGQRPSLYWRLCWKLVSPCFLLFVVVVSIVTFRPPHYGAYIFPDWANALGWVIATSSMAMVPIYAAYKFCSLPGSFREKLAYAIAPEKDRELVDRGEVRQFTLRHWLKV
T6 sequence (Q01959 whole entry H477Q): as the sequence (Q01959 whole entry Q317A) above, with A317Q, H477Q counted along it

“(-)-Syringaresinol-4-O-β-D-apiofuranosyl-(1→2)-β-D-glucopyranoside [SAG]” showed an IC50 [1] of 113 ± 5 µM, an IC50 [2] of 69.2 ± 3.3 µM and an IC50 [3] of 152 ± 12 µM. For the same substance, the IC50 [4] was 126 ± 8.1 µM, the IC50 [5] was 51.3 ± 3.1 µM and the IC50 [6] was 72.4 ± 4.8 µM. For the same substance, the IC50 (WT-hNET) was 40.1 ± 2.8 µM, the IC50 [7] was > 1000 µM and the IC50 [8] was 304 ± 12 µM.
